Measured values taken from patent publication US11312713B2, “Imidazo[4,5-C]quinoline derivatives as LRRK2 inhibitors” (Pfizer Inc., priority 2017, dated 2022).
Where two headings read alike, the source gives them in different places.

What was measured:
[1] = target: LRRK2, WT (GST-tagged truncated LRRK2) (Homo sapiens, UniProt Q5S007); assay: LRRK2 kinase assay (LanthaScreen), wild type; assay type: biochemical; conditions: LanthaScreen, LRRKtide substrate
Summary of the method: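 GST-tagged truncated enzyme (2 μg/mL) phosphorylates 100 nM fluorescein-LRRKtide with 1 mM ATP in HEPES pH 7.5, 3 mM MgCl2, DTT, Brij35; 30 min, room temperature, compound dose response top 3 μM. Stopped with EDTA; phospho-ERM detected by terbium anti-phospho-ERM TR-FRET; identical conditions for both enzymes.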

mutant G2019S LRRK2 = mutant G2019S LRRK2 (Homo sapiens (Human), UniProt Q5S007, G2019S); assay: LRRK2 kinase assay (LanthaScreen), G2019S mutant; assay type: biochemical; conditions: LanthaScreen, LRRKtide substrate
Sequence of mutant G2019S LRRK2 (Q5S007 whole entry G2019S, the tested form may be a part): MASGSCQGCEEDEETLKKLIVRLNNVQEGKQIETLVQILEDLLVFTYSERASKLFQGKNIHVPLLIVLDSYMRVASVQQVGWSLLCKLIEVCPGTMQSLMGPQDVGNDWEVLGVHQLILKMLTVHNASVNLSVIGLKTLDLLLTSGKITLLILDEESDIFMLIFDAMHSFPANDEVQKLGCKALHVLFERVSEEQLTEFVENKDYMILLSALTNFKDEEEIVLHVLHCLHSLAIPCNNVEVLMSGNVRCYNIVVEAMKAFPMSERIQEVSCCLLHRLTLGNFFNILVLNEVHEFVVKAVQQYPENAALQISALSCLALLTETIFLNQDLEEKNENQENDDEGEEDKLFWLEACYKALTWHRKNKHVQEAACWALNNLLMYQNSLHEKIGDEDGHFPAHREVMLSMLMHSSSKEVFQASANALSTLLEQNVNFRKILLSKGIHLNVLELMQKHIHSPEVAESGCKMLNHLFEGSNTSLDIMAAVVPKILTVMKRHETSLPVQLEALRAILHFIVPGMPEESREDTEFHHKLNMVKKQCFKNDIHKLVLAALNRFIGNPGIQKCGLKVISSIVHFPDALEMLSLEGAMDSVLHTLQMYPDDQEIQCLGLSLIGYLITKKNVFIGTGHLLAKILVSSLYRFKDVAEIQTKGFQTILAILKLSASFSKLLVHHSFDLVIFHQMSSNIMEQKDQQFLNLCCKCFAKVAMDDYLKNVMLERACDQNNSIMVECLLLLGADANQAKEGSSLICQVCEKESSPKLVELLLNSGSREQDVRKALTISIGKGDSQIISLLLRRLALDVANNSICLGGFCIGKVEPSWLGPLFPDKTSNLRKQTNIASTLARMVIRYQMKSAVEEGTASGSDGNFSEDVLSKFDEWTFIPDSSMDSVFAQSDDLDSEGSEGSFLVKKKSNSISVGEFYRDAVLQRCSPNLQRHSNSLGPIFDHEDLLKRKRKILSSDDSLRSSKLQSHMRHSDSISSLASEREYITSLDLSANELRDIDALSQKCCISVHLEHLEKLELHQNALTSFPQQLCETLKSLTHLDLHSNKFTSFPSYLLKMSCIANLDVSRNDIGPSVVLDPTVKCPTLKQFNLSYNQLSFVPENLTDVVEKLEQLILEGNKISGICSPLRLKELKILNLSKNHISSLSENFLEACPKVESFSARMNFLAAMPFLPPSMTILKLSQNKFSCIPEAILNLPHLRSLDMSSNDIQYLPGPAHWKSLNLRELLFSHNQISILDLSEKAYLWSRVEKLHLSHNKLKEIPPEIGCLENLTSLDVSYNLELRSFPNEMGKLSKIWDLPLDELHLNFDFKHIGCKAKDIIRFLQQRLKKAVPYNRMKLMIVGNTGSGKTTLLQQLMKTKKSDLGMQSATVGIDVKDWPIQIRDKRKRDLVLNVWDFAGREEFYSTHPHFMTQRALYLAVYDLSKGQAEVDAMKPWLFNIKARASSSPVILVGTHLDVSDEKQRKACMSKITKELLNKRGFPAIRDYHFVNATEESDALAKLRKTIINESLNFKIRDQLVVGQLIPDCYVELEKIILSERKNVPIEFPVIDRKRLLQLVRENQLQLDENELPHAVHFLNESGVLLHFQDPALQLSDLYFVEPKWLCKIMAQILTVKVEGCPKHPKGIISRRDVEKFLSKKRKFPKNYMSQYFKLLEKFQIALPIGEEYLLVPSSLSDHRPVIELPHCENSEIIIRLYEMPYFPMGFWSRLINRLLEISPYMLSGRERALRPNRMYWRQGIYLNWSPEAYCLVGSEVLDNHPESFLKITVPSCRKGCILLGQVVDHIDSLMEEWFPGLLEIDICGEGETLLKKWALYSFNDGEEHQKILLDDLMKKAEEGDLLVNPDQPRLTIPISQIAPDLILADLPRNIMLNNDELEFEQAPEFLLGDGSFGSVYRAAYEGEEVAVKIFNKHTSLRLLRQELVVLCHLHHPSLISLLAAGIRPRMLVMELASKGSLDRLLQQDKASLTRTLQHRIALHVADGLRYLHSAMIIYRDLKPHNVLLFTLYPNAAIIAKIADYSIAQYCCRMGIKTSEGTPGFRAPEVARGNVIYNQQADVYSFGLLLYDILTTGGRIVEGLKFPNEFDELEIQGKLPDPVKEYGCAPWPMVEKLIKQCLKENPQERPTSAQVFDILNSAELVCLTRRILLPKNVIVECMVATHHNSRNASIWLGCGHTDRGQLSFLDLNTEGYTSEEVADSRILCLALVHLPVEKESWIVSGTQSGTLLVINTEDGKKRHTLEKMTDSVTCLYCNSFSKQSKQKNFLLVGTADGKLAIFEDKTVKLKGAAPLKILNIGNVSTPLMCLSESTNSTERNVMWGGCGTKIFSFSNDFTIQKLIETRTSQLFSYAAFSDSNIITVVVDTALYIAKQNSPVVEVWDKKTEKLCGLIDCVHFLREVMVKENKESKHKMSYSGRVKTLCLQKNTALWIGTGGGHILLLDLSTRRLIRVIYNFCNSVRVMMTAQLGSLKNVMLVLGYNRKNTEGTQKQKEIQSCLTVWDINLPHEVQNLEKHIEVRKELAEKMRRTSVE
Description: LRRK2 kinase activity was measured using Lantha Screen technology from Invitrogen. GST-tagged truncated LRRK2 from Invitrogen (Cat #PV4874) was incubated with a fluorescein-labeled peptide substrate based upon ezrin/radixin/moesin (ERM), also known as LRRKtide (Invitrogen cat #PR8976A), in the presence of a dose response of compound. Upon completion, the assay was stopped and detected with a terbium labeled anti-phospho-ERM antibody (Invitrogen, cat #PR8975A). […] Using Echo acoustic dispensing, 60 nL of compound was transferred to a low volume Corning 384-well assay plate. 3 μL of a working solution of substrate (200 nM LRRKtide, 2 mM ATP) prepared in assay buffer (50 mM HEPES, pH 7.5, 3 mM MgCl2, with 2 mM DTT and 0.01% Brij35 added fresh) was added to the 60 nL compound assay plate. The kinase reaction was started with 3 μL of a working solution of LRRK2 enzyme at a concentration of 4 μg/m L. The final reaction concentrations were 100 nM LRRKtide, 1 mM ATP, 2 μg/mL LRRK2 enzyme and a compound dose response with a top dose of 3 μM. The reaction was allowed to progress at room temperature for 30 minutes and then stopped with the addition of 6 μL of detection buffer (20 mM Tris pH 7.6, 0.01% NP-40, 6 mM EDTA with 2 nM terbium labeled antiphospho-ERM). […] All final concentrations of substrate ATP and enzyme were the same.

[2] = G2019S mutant LRRK2, read-out: LRRK2, G2019S IC50

CN1CC(n2c(Cn3cnnn3)nc3cnc4ccc(Cl)cc4c32)C(F)(F)C1 (stereo not drawn) [Example 83, 8-chloro-1-(4,4-difluoro-1-methylpyrrolidin-3-yl)-2-(1H-tetrazol-1-ylmethyl)-1H-imidazo[4,5-c]quinoline]
IC50 ([1]; wild type LRRK2): 7.91 nM | IC50 (mutant G2019S LRRK2; [2]): 11.6 nM

CN1CC(n2c(Cc3ncn(C)n3)nc3cnc4ccc(Cl)cc4c32)C(F)(F)C1 (stereo not drawn) [Example 84, 8-chloro-1-(4,4-difluoro-1-methylpyrrolidin-3-yl)-2-[(1-methyl-1H-1,2,4-triazol-3-yl)methyl]-1H-imidazo[4,5-c]quinoline]
IC50 ([1]; wild type LRRK2): 10.2 nM | IC50 (mutant G2019S LRRK2; [2]): 18.2 nM

CN1CC(n2c(Cn3cnnn3)nc3cnc4ccc(Cl)cc4c32)C(F)(F)C1 (stereo not drawn) [Example 86, 8-chloro-1-(4,4-difluoro-1-methylpyrrolidin-3-yl)-2-(1H-tetrazol-1-ylmethyl)-1H-imidazo[4,5-c]quinoline]
IC50 ([1]; wild type LRRK2): 6.66 nM | IC50 (mutant G2019S LRRK2; [2]): 4.4 nM

Cc1cnn(Cc2nc3cnc4ccc(Cl)cc4c3n2C2CN(C)CC2(F)F)n1 (stereo not drawn) [Example 87, 8-chloro-1-(4,4-difluoro-1-methylpyrrolidin-3-yl)-2-[(4-methyl-2H-1,2,3-triazol-2-yl)methyl]-1H-imidazo[4,5-c]quinoline]
IC50 ([1]; wild type LRRK2): 7.04 nM | IC50 (mutant G2019S LRRK2; [2]): 4.51 nM

Cc1nc(Cc2nc3cnc4ccc(Cl)cc4c3n2C2CN(C)CC2(F)F)no1 (stereo not drawn) [Example 88, 8-chloro-1-(4,4-difluoro-1-methylpyrrolidin-3-yl)-2-[(5-methyl-1,2,4-oxadiazol-3-yl)methyl]-1H-imidazo[4,5-c]quinoline]
IC50 ([1]; wild type LRRK2): 9.25 nM | IC50 (mutant G2019S LRRK2; [2]): 8.16 nM

Cc1nnc(Cc2nc3cnc4ccc(Cl)cc4c3n2C2CN(C)CC2(F)F)s1 (stereo not drawn) [Example 89, 8-chloro-1-(4,4-difluoro-1-methylpyrrolidin-3-yl)-2-[(5-methyl-1,3,4-thiadiazol-2-yl)methyl]-1H-imidazo[4,5-c]quinoline]
IC50 ([1]; wild type LRRK2): 13.9 nM | IC50 (mutant G2019S LRRK2; [2]): 8.03 nM

Cc1cn(Cc2nc3cnc4ccc(C(F)F)cc4c3n2[C@@H]2CCO[C@H](C)C2)nn1 [Example 90, 8-(difluoromethyl)-1-[(2R,4R)-2-methyltetrahydro-2H-pyran-4-yl]-2-[(4-methyl-1H-1,2,3-triazol-1-yl)methyl]-1H-imidazo[4,5-c]quinoline]
IC50 ([1]; wild type LRRK2): 14.7 nM | IC50 (mutant G2019S LRRK2; [2]): 7.32 nM

Cc1cc(Cc2nc3cnc4ccc(C(F)F)cc4c3n2[C@@H]2CCO[C@H](C)C2)no1 [Example 91, 8-(difluoromethyl)-2-[(5-methyl-1,2-oxazol-3-yl)methyl]-1-[(2R,4R)-2-methyltetrahydro-2H-pyran-4-yl]-1H-imidazo[4,5-c]quinoline]
IC50 ([1]; wild type LRRK2): 18 nM | IC50 (mutant G2019S LRRK2; [2]): 8.4 nM

Cc1nnc(Cc2nc3cnc4ccc(Cl)cc4c3n2C2CCOCC2(F)F)s1 (stereo not drawn) [Example 92, 8-chloro-1-(3,3-difluorotetrahydro-2H-pyran-4-yl)-2-[(5-methyl-1,3,4-thiadiazol-2-yl)methyl]-1H-imidazo[4,5-c]quinoline]
IC50 ([1]; wild type LRRK2): 10.9 nM | IC50 (mutant G2019S LRRK2; [2]): 6.91 nM

FC1(F)COCCC1n1c(Cn2cncn2)nc2cnc3ccc(Cl)cc3c21 (stereo not drawn) [Example 93, 8-chloro-1-(3,3-difluorotetrahydro-2H-pyran-4-yl)-2-(1H-1,2,4-triazol-1-ylmethyl)-1H-imidazo[4,5-c]quinoline]
IC50 ([1]; 1 mM ATP): 11 nM | IC50 ([1]; wild type LRRK2): 11.9 nM | IC50 (mutant G2019S LRRK2; [2]): 8.7 nM

FC1(F)COCCC1n1c(Cn2cc(C3CC3)nn2)nc2cnc3ccc(Cl)cc3c21 (stereo not drawn) [Example 94, 8-chloro-2-[(4-cyclopropyl-1H-1,2,3-triazol-1-yl)methyl]-1-(3,3-difluorotetrahydro-2H-pyran-4-yl)-1H-imidazo[4,5-c]quinolone]
IC50 ([1]; wild type LRRK2): 6.35 nM | IC50 (mutant G2019S LRRK2; [2]): 6.48 nM

C[C@@H]1C[C@H](n2c(Cc3cnc(CO)cn3)nc3cnc4ccc(Cl)cc4c32)CCO1 [Example 95, [5-({8-chloro-1-[(2R,4R)-2-methyltetrahydro-2H-pyran-4-yl]-1H-imidazo[4,5-c]quinolin-2-yl}methyl)pyrazin-2-yl]methanol]
IC50 ([1]; wild type LRRK2): 4.6 nM | IC50 (mutant G2019S LRRK2; [2]): 3.5 nM

Cc1cn(Cc2nc3cnc4ccc(Cl)cc4c3n2C2CCOCC2(F)F)nn1 (stereo not drawn) [enantiomer of Example 46, 8-chloro-1-(3,3-difluorotetrahydro-2H-pyran-4-yl)-2-[(4-methyl-1H-1,2,3-triazol-1-yl)methyl]-1H-imidazo[4,5-c]quinoline]
IC50 ([1]; 1 mM ATP): 21.4 nM | IC50 (mutant G2019S LRRK2; 1 mM ATP, read-out: LRRK2, G2019S mutant IC50): 16.1 nM
